Measured values: ChEMBL document CHEMBL1201862, “PubChem BioAssay data set” (2004)
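Following 48 hours of exposure in 96-well plates, responses at five concentrations were used to interpolate endpoints linearly. GI50 = concentration required for 50% inhibition of growth.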 The source made the active and inactive calls. Cut-off read from the data, not from the text of the source: active = GI50 up to about 1.1 µM and inactive = higher.

Legend:
Assay in all cases: DTP human tumour cell line panel, 48 h
COLO 205 = tested on: COLO 205
TK-10 = tested on: TK-10
Malme-3M = tested on: Malme-3M
NCI-H522 = tested on: NCI-H522
NCI-H226 = tested on: NCI-H226
IGROV-1 = tested on: IGROV-1
ACHN = tested on: ACHN
A549 = tested on: A549
OVCAR-4 = tested on: OVCAR-4
UACC-257 = tested on: UACC-257
SK-MEL-5 = tested on: SK-MEL-5
RXF 393 = tested on: RXF 393
CCRF-CEM = tested on: CCRF-CEM
SNB-19 = tested on: SNB-19
HOP-62 = tested on: HOP-62
RPMI-8226 = tested on: RPMI-8226
NCI-H460 = tested on: NCI-H460
LOX IMVI = tested on: LOX IMVI
HL-60 = tested on: HL-60

Measured: GI50

O=C(c1ccccc1)c1cccc(C(=O)c2ccccc2)c1
inactive: COLO 205 > 100 µM | TK-10 > 100 µM | Malme-3M 78.2 µM | NCI-H522 > 100 µM | NCI-H226 34.3 µM | IGROV-1 > 100 µM | ACHN > 100 µM | A549 > 100 µM | OVCAR-4 > 100 µM | UACC-257 > 100 µM | SK-MEL-5 78.9 µM | RXF 393 76.4 µM | CCRF-CEM 63.8 µM | SNB-19 > 100 µM | HOP-62 > 100 µM | RPMI-8226 > 100 µM | NCI-H460 > 100 µM | LOX IMVI 33 µM

CC(=O)OC1COC(N2CCc3ccccc32)C(OC(C)=O)C1OC(C)=O (stereo unspecified)
inactive: COLO 205 > 100 µM | TK-10 > 100 µM | Malme-3M > 100 µM | NCI-H522 > 100 µM | NCI-H226 > 100 µM | IGROV-1 > 100 µM | ACHN > 100 µM | A549 > 100 µM | OVCAR-4 > 100 µM | UACC-257 > 100 µM | SK-MEL-5 > 100 µM | RXF 393 > 100 µM | CCRF-CEM > 100 µM | SNB-19 > 100 µM | HOP-62 > 100 µM | RPMI-8226 > 100 µM | NCI-H460 > 100 µM | LOX IMVI > 100 µM

CC(C)=CC(=O)N1CCN(C(=O)C=C(C)C)CC1
inactive: TK-10 > 100 µM | NCI-H522 > 100 µM | HL-60 > 100 µM | IGROV-1 > 100 µM | ACHN > 100 µM | A549 > 100 µM | OVCAR-4 > 100 µM | UACC-257 > 100 µM | SK-MEL-5 > 100 µM | CCRF-CEM > 100 µM | SNB-19 > 100 µM | HOP-62 > 100 µM | RPMI-8226 > 100 µM | NCI-H460 > 100 µM | LOX IMVI > 100 µM

CC(=O)O[C@H]1CCC2[C@@H]3CCC4=C(O)C(=O)C(C#N)C[C@]4(C)C3CC[C@@]21C (stereo partly specified)
inactive: COLO 205 28.4 µM | TK-10 18.2 µM | Malme-3M 36.1 µM | HL-60 20 µM | NCI-H226 24.9 µM | IGROV-1 26.2 µM | ACHN 26.7 µM | A549 36.7 µM | OVCAR-4 30.9 µM | UACC-257 56.5 µM | SK-MEL-5 26.1 µM | RXF 393 24.9 µM | CCRF-CEM 30.1 µM | SNB-19 45.1 µM | HOP-62 65.5 µM | RPMI-8226 12.4 µM | NCI-H460 31.6 µM | LOX IMVI 18.9 µM

CC1=C(C(=O)O)N2C(=O)[C@@H](NC(=O)C(c3ccc(O)cc3)N3CSC(=S)N(C(C)C)C3)C2SC1 (stereo partly specified)
inactive: COLO 205 97.7 µM | TK-10 > 100 µM | Malme-3M > 100 µM | NCI-H522 50.1 µM | HL-60 > 100 µM | IGROV-1 > 100 µM | ACHN > 100 µM | A549 > 100 µM | OVCAR-4 > 100 µM | UACC-257 > 100 µM | SK-MEL-5 > 100 µM | CCRF-CEM 63.8 µM | SNB-19 > 100 µM | HOP-62 > 100 µM | RPMI-8226 > 100 µM | NCI-H460 > 100 µM | LOX IMVI > 100 µM

CCOC(=O)CCc1c(C)c2c(OC)cc(OC)cc2oc1=O
inactive: COLO 205 > 100 µM | TK-10 > 100 µM | Malme-3M 51.3 µM | NCI-H522 > 100 µM | HL-60 88.3 µM | NCI-H226 25.5 µM | ACHN 42.4 µM | A549 > 100 µM | OVCAR-4 > 100 µM | UACC-257 > 100 µM | RXF 393 33.9 µM | SNB-19 > 100 µM | HOP-62 > 100 µM | NCI-H460 > 100 µM | LOX IMVI > 100 µM

Cc1ccc(Oc2ccc(C(=O)c3cccc(C(=O)c4ccc(Oc5ccc(C)cc5)cc4)n3)cc2)cc1
inactive: COLO 205 > 100 µM | TK-10 > 100 µM | Malme-3M > 100 µM | NCI-H522 > 100 µM | HL-60 > 100 µM | NCI-H226 > 100 µM | IGROV-1 > 100 µM | ACHN > 100 µM | A549 > 100 µM | OVCAR-4 71.8 µM | UACC-257 > 100 µM | SK-MEL-5 > 100 µM | RXF 393 > 100 µM | CCRF-CEM > 100 µM | SNB-19 > 100 µM | HOP-62 > 100 µM | NCI-H460 > 100 µM | LOX IMVI > 100 µM

O=C1CN=C(C[N+](=O)[O-])c2ccccc21
inactive: COLO 205 > 100 µM | Malme-3M > 100 µM | NCI-H522 > 100 µM | HL-60 > 100 µM | NCI-H226 > 100 µM | IGROV-1 > 100 µM | ACHN > 100 µM | A549 > 100 µM | OVCAR-4 > 100 µM | UACC-257 > 100 µM | SK-MEL-5 > 100 µM | SNB-19 > 100 µM | HOP-62 > 100 µM | RPMI-8226 > 100 µM | NCI-H460 > 100 µM

O=S(=O)(O)c1cc(/N=N/c2c(O)ccc3ccccc23)cc2c(S(=O)(=O)O)cccc12
inactive: COLO 205 > 100 µM | TK-10 > 100 µM | Malme-3M 33.7 µM | NCI-H522 > 100 µM | HL-60 > 100 µM | NCI-H226 > 100 µM | IGROV-1 > 100 µM | ACHN > 100 µM | A549 > 100 µM | OVCAR-4 > 100 µM | UACC-257 > 100 µM | SK-MEL-5 > 100 µM | RXF 393 > 100 µM | CCRF-CEM > 100 µM | SNB-19 > 100 µM | HOP-62 > 100 µM | RPMI-8226 > 100 µM | NCI-H460 > 100 µM

C[n+]1c2ccccc2c(NCC(=O)O)c2ccccc21
inactive: COLO 205 > 100 µM | TK-10 > 100 µM | Malme-3M > 100 µM | NCI-H522 > 100 µM | HL-60 > 100 µM | NCI-H226 > 100 µM | IGROV-1 > 100 µM | ACHN > 100 µM | A549 > 100 µM | OVCAR-4 > 100 µM | UACC-257 > 100 µM | SK-MEL-5 > 100 µM | RXF 393 > 100 µM | SNB-19 > 100 µM | HOP-62 > 100 µM | RPMI-8226 > 100 µM | NCI-H460 > 100 µM

O=C1C2C3CC(C4C5C=CC(C5)C34)C2C2C3CC(C12)C1C2C=CC(C2)C31 (stereo unspecified)
inactive: COLO 205 > 100 µM | TK-10 > 100 µM | Malme-3M > 100 µM | NCI-H522 > 100 µM | HL-60 75.2 µM | NCI-H226 > 100 µM | IGROV-1 > 100 µM | ACHN > 100 µM | A549 > 100 µM | OVCAR-4 > 100 µM | UACC-257 > 100 µM | SK-MEL-5 > 100 µM | RXF 393 > 100 µM | CCRF-CEM 61.4 µM | SNB-19 > 100 µM | HOP-62 > 100 µM | NCI-H460 26.8 µM | LOX IMVI 28.8 µM

O=C(c1ccccc1)c1c(CC(O)c2ccccc2)n(C(=O)c2ccccc2)c2ccccc12 (stereo unspecified)
inactive: COLO 205 47.6 µM | TK-10 > 100 µM | Malme-3M 56.2 µM | NCI-H522 17.5 µM | HL-60 31.3 µM | NCI-H226 31.6 µM | IGROV-1 42.6 µM | ACHN 34.4 µM | A549 31.6 µM | OVCAR-4 35.5 µM | UACC-257 35.3 µM | SK-MEL-5 29.2 µM | CCRF-CEM 35.8 µM | SNB-19 36.4 µM | HOP-62 24.2 µM | RPMI-8226 25.2 µM | NCI-H460 30.1 µM

O=C(CC1C(=O)Nc2ccccc2[S+]1[O-])Nc1ccccc1 (stereo unspecified)
inactive: COLO 205 > 100 µM | TK-10 > 100 µM | Malme-3M > 100 µM | NCI-H522 > 100 µM | HL-60 > 100 µM | NCI-H226 > 100 µM | IGROV-1 > 100 µM | ACHN 59.7 µM | A549 > 100 µM | OVCAR-4 > 100 µM | UACC-257 > 100 µM | SK-MEL-5 > 100 µM | RXF 393 19.8 µM | CCRF-CEM > 100 µM | SNB-19 > 100 µM | HOP-62 > 100 µM | NCI-H460 > 100 µM

O=C1N=CN=C2C=CC(Cl)=C(I)C12 (stereo unspecified)
inactive: COLO 205 > 100 µM | TK-10 80.9 µM | Malme-3M > 100 µM | HL-60 93.5 µM | IGROV-1 33.3 µM | ACHN 43.4 µM | A549 > 100 µM | OVCAR-4 > 100 µM | UACC-257 > 100 µM | SK-MEL-5 98.2 µM | RXF 393 23.3 µM | CCRF-CEM > 100 µM | SNB-19 47.9 µM | HOP-62 67.5 µM | RPMI-8226 56.2 µM | NCI-H460 75.5 µM | LOX IMVI 56.1 µM

O=C(O)c1nc(-c2ccc(Cl)c(Cl)c2)nc2ccc(Cl)cc12
inactive: COLO 205 > 100 µM | TK-10 44.8 µM | Malme-3M > 100 µM | HL-60 16.6 µM | IGROV-1 51.5 µM | ACHN > 100 µM | A549 > 100 µM | UACC-257 > 100 µM | SK-MEL-5 > 100 µM | RXF 393 28.3 µM | CCRF-CEM > 10 µM | SNB-19 51.9 µM | HOP-62 38.2 µM | RPMI-8226 > 100 µM | NCI-H460 > 100 µM

COC(=O)[C@]1(C)CCC[C@@]2(C)C1CCC1=CC3(C(C)C)CCC12OO3 (stereo partly specified)
inactive: COLO 205 > 100 µM | TK-10 > 100 µM | Malme-3M 36.2 µM | NCI-H522 40.5 µM | HL-60 15.9 µM | NCI-H226 43.7 µM | IGROV-1 > 100 µM | ACHN 63.4 µM | A549 44 µM | OVCAR-4 51.3 µM | UACC-257 31.5 µM | SK-MEL-5 31.1 µM | CCRF-CEM 31.2 µM | SNB-19 > 100 µM | HOP-62 > 100 µM | RPMI-8226 43.1 µM | NCI-H460 58.6 µM | LOX IMVI 81.1 µM
